# Values of other authors, collected in patent publication US20120115783A1, “PEPTIDOMIMETIC MACROCYCLES” (Alleron therapeutics, Inc, priority 2008, published 2012).
# System: HCT116 tumour xenografts
smiles,measurement,setting,value
CN1C(=O)[C@]2(Cc3cn([C@]45C[C@@]67SS[C@@](CO)(C(=O)N6[C@H]4Nc4ccccc45)N(C)C7=O)c4ccccc34)SS[C@@]1(CO)C(=O)N2C [chetomin],growth of HCT116 tumour xenografts,HCT116 tumour xenografts,inhibited their growth
same,hypoxia-inducible transcription within HCT116 tumour xenografts,"within HCT116 tumour xenografts, pharmacological inhibition of HIF-1α",inhibited hypoxia-inducible transcription
